Laboratory results reported in paper PMC10901950, “Neuroprotective and Anti-inflammatory Effects of Rubiscolin-6 Analogs with Proline Surrogates in Position 2” (Neurochemical Research, 2023).
Ends that are not written are not given here.

Columns and labels:
RAW 264.7 cells = test: Intracellular ROS generation in RAW 264.7 cells (not stimulated); format: cell-based, mouse; conditions: 0.1-10 µM, 24 h, DCFH-DA, unstimulated cells
Description: The detection of ROS generated in injured cells was evaluated using the 5(6)-carboxy-2ʹ,7ʹ-dichlorofluorescein diacetate (carboxy-H2DCFDA) reagent (Invitrogen, Bleiswijk, Netherlands). After incubation, cells were washed with ice-cold Phosphate-Buffer Saline (PBS). Then, the carboxyl-H2DCFDA (100 µL, 20 µM) reagent was added and incubated for 1 h at 37 °C. Finally, the fluorescence intensity was measured at wavelengths of […], and ROS levels were presented in percentage of control (non-treated cells).

SH-SY5Y cells = test: Cytotoxicity on SH-SY5Y cells (MTT); format: cell-based, human; conditions: 10 µM, 24 h
Description: The neuroprotective experiments were performed in an in vitro model of a human neuroblastoma cell line (SH-SY5Y) obtained from the German Collection of Microorganisms and Cell Cultures GmbH (DSMZ) Bank (ACC 209). Cells were cultured in Dulbecco’s Modified Eagle’s Medium: Nutrient Mixture F12 (DMEM:F12) supplemented with 1% antibiotic/antimycotic (Amphotericin B, Penicillin and Streptomycin) (Biowest, Nuaillé, France) and 10% (v/v) Fetal Bovine Serum (FBS) (Biowest, Riverside, MO, USA). The anti-inflammatory experiments were performed in an in vitro model of mouse macrophage-like RAW 264.7 cells, purchased from American Type Culture Collection (ATCC, Manassas, VA, USA). Cells were maintained in DMEM medium (Gibco™, Grand Island, NY) and supplemented with 10% bovine calf serum (BCS) (Gibco™, Grand Island, NY) and 1% penicillin–streptomycin (Sigma-Aldrich, St. Louis, MO, USA). Cell cultures were kept at 37 °C in 5% CO2/humidified air.
Cells were incubated with peptides (0.1–10 µM) for 24 h to assess their cytotoxic activity. […] The resulting absorbance was read in a microplate reader (Biotek, Epoch/2 microplate reader, Winooski, VT, USA) at 570 nm.
Cell metabolic activity (cytotoxicity) was calculated as the percentage of the value obtained for cells incubated with compounds compared to control cells treated with the medium.

Row | Substance | effect on intracellular ROS levels (RAW 264.7 cells) | SH-SY5Y cell viability (cytotoxicity) (SH-SY5Y cells)
1 | YPLDLF [R-6, rubiscolin-6] | did not affect | 
2 | YPLDLF-NH2 [analog 6, Tyr-Pro-Leu-Asp-Leu-Phe-NH2] |  | significantly decreased
